Patent US20220033397A1, “PHARMACEUTICAL COMPOUNDS AND THEIR USE AS INHIBITORS OF UBIQUITIN SPECIFIC PROTEASE 19 (USP19)” (ALMAC DISCOVERY LIMITED, priority 2018, published 2022)

What follows are compounds tested against T1, Full-length USP19 (Homo sapiens, UniProt O94966) (assay: USP19 fluorescence polarisation (FP) homogeneous assay with Ubiquitin-Lys-TAMRA substrate). Conditions: 2.5 nM USP19, 30 min pre-incubation, average of at least two duplicate experiments.
T1 construct: Full-length USP19 was purchased from Boston Biochem (E-576); purchased Boston Biochem E-576
T1 sequence (O94966 1-1318): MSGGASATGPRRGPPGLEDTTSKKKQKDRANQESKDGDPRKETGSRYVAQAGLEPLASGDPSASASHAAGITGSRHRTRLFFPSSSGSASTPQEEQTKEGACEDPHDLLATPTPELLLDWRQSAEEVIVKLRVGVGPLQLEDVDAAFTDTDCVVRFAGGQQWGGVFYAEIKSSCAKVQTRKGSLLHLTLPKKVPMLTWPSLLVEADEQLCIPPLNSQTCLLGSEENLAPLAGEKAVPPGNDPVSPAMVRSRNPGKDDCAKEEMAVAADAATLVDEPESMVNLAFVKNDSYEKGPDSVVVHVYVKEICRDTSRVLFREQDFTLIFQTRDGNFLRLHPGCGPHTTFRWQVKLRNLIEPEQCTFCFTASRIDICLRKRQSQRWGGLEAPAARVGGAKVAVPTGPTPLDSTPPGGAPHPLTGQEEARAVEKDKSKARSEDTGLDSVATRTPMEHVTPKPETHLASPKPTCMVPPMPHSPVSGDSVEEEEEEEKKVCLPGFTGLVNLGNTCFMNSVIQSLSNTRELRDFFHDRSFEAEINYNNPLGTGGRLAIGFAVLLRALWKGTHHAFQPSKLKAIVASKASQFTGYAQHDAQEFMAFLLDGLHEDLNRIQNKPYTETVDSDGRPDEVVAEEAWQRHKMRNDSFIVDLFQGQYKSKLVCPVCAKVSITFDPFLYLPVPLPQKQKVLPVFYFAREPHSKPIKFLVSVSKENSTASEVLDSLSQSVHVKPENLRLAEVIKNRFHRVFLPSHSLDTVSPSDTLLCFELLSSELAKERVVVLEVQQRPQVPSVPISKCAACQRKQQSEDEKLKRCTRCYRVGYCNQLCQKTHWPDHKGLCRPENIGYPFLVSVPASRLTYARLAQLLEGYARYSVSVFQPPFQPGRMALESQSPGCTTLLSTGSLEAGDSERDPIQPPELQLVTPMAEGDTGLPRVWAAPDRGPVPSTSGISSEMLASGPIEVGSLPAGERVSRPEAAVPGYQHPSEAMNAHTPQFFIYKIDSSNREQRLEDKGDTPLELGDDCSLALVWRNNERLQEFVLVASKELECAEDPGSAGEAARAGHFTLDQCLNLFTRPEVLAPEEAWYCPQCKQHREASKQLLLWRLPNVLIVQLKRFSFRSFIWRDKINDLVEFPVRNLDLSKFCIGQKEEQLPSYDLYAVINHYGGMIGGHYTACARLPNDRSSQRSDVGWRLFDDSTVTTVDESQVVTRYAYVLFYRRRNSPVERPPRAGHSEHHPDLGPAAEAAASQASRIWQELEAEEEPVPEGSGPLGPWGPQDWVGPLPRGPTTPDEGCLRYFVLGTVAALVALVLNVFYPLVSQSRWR
Assay type: biochemical
Procedure, shortened: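 Full-length USP19 preincubated 30 min at RT with inhibitor (200 μM to 2 μM series, 8–18 points) before adding 500 nM Ubiquitin-Lys-TAMRA substrate.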

Structure (SMILES) | IC50
CC(CC1CCCCC1)C(=O)N1CCC(O)(CN2C(=O)c3ccccc3C2=O)C(C)(C)C1 (centres unmarked) [Example 42, 2-((1-(3-Cyclohexyl-2-methylpropanoyl)-4-hydroxy-3,3-dimethylpiperidin-4-yl)methyl)isoindoline-1,3-dione] | 50000 to 250000 nM
O=C(N1CC[C@@](O)(Cn2cnc(-c3ccccc3)cc2=O)C2(CCCC2)C1)N1CCOC[C@H]1c1ccc(F)cc1 [Example 228, 3-(((S)-7-((R)-3-(4-Fluorophenyl)morpholine-4-carbonyl)-10-hydroxy-7-azaspiro[4.5]decan-10-yl)methyl)-6-phenylpyrimidin-4(3H)-one] | < 500 nM
Cc1cc(=O)n(C[C@]2(O)CCN(C(=O)N3CCNC[C@H]3c3ccccc3)CC23CCCC3)cn1 [Example 300, 3-(((S)-10-Hydroxy-7-((R)-2-phenylpiperazine-1-carbonyl)-7-azaspiro[4.5]decan-10-yl)methyl)-6-methylpyrimidin-4(3H)-one] | < 500 nM
Cc1cn(CC2(O)CCN(C(=O)N3CCNC[C@H]3c3ccccc3)CC23CCCC3)c(=O)cn1 (stereo partly drawn) [Example 92, 1-((10-Hydroxy-7-((R)-2-phenylpiperazine-1-carbonyl)-7-azaspiro[4.5]decan-10-yl)methyl)-5-methylpyrazin-2(1H)-one] | < 500 nM
O=C(N1CCC(O)(Cn2cnc(-c3ccccc3)cc2=O)C2(CCCC2)C1)N1CCSCC1c1ccccc1 [Example 333, (S)-3-((10-Hydroxy-7-(3-phenylthiomorpholine-4-carbonyl)-7-azaspiro[4.5]decan-10-yl)methyl)-6-phenylpyrimidin-4(3H)-one] | < 500 nM
C[C@H](CC1CCCCC1)C(=O)N1CCC(O)(Cn2cnc3c(F)cccc3c2=O)C2(CCCC2)C1 (stereo partly drawn) [Example 131, 3-((7-((R)-3-Cyclohexyl-2-methylpropanoyl)-10-hydroxy-7-azaspiro[4.5]decan-10-yl)methyl)-8-fluoroquinazolin-4(3H)-one] | 500 to 5000 nM
O=C(N1CCC(O)(Cn2cnc(-c3ccccc3)cc2=O)C2(CCCC2)C1)N1CCNCC1C1CCC1 (centres unmarked) [Example 276, 3-((7-(2-Cyclobutylpiperazine-1-carbonyl)-10-hydroxy-7-azaspiro[4.5]decan-10-yl)methyl)-6-phenylpyrimidin-4(3H)-one] | 5000 to 50000 nM
O=C(N1CC[C@@](O)(Cn2ccc3ncncc3c2=O)C2(CCCC2)C1)N1CCNC[C@H]1c1ccccc1 [Example 185, 6-(((S)-10-Hydroxy-7-((R)-2-phenylpiperazine-1-carbonyl)-7-azaspiro[4.5]decan-10-yl)methyl)pyrido[4,3-d]pyrimidin-5(6H)-one] | < 500 nM
C[C@H](CC1CCCCC1)C(=O)N1CCC(O)(Cn2cc(S(C)(=N)=O)c(-c3ccccc3)cc2=O)C2(CCCC2)C1 (stereo partly drawn) [Example 74, 1-((7-((R)-3-Cyclohexyl-2-methylpropanoyl)-10-hydroxy-7-azaspiro[4.5]decan-10-yl)methyl)-5-(S-methylsulfonimidoyl)-4-phenylpyridin-2(1H)-one] | < 500 nM
CN(C)C(=O)c1cn(CC2(O)CCN(C(=O)N(C)CC3CCCCC3)CC23CCCC3)c(=O)cc1-c1ccccc1 (centres unmarked) [Example 82, N-(Cyclohexylmethyl)-10-((5-(dimethylcarbamoyl)-2-oxo-4-phenylpyridin-1(2H)-yl)methyl)-10-hydroxy-N-methyl-7-azaspiro[4.5]decane-7-carboxamide] | < 500 nM
C[C@H](CC1CCCCC1)C(=O)N1CCC(O)(Cn2cnc3ccc(F)cc3c2=O)C2(CCCC2)C1 (stereo partly drawn) [Example 154, 3-((7-((R)-3-Cyclohexyl-2-methylpropanoyl)-10-hydroxy-7-azaspiro[4.5]decan-10-yl)methyl)-6-fluoroquinazolin-4(3H)-one] | < 500 nM
